Test results reported in patent US20230321066A1, “PREVENTATIVE TREATMENT OF MIGRAINE” (priority 2020, published 2023).

Experiments:
[1] = system: episodic and chronic migraine patients; conditions: human, in vivo, 12 weeks
[2] = system: episodic and chronic migraine patients; assay: BHV3000-305 study: adverse events and liver safety on double-blind treatment
[3] = system: episodic and chronic migraine patients; assay: BHV3000-305 Phase 2/3 randomized, double-blind, placebo-controlled study of rimegepant in migraine prevention: efficacy; type: in vivo, human
Method: Clinical Trial—BHV3000-305: A Phase 2/3, Randomized, Double-blind, Placebo-controlled Study to Evaluate the Efficacy and Safety of Rimegepant in Migraine Prevention (ClinicalTrials.gov Identifier: NCT03732638).
A phase 2/3 clinical study was conducted with 1629 participants, as follows.
The purpose of this is study is to compare the efficacy of BHV-3000 (rimegepant) to placebo as a preventive treatment for migraine, as measured by the reduction in the number of migraine days per month.
• Study Type: Interventional (Clinical Trial) • Actual Enrollment: 1629 participants • Allocation: Randomized • Intervention Model: Parallel Assignment • Masking: Triple (Participant, Care Provider, Investigator) • Primary Purpose: Prevention • Official Title: A Phase 2/3, Randomized, Double-blind, Placebo-controlled Study to Evaluate the Efficacy and Safety of Rimegepant in Migraine Prevention • Actual Study Start Date: Nov. 14, 2018 • Actual Primary Completion Date: Dec. 10, 2019
Primary Outcome Measures: • 1. Change from baseline in mean number of migraine days per month [Time Frame: Mean number of migraine days per month as assessed over 3 months (12 weeks)] • Change from baseline in mean number of migraine days per month as measured over the 12-week double-blind phase of the study.
Secondary Outcome Measures: • 1. Achievement of at least a 50% reduction from baseline in mean number of moderate to severe monthly migraine days. [Time Frame: baseline to end of Week 12] • Achievement of at least a 50% reduction from baseline in mean number of moderate to severe monthly migraine days over course of the double-blind treatment phase. • 2. The mean number of rescue medication days per month. [Time Frame: baseline to end of week 12 as measure per month] • The mean number of rescue medication days per month over the course of the double-blind, treatment phase. Rescue medications include the rescue medications defined in this protocol. • 3. Adverse events. [Time Frame: baseline to end of Week 12] • Adverse events that occur in at least 5% of treated subjects; the frequency of unique subjects with serious adverse events, adverse events leading to discontinuation and clinically significant laboratory abnormalities, as reported on case report forms. • 4. The frequency of AST or ALT elevations. [Time Frame: baseline to end of Week 12] • The frequency of AST or ALT elevations>3×ULN, concurrently with bilirubin elevations>2×ULN, will be assessed by tabulating the number of unique subjects with this pairing of events. • 5. The frequency of hepatic-related adverse events and hepatic-related treatment. [Time Frame: baseline to end of Week 12] • The frequency of hepatic-related adverse events and hepatic-related treatment discontinuations will be tabulated from case report forms and will be based on unique subjects reporting such events. • 6. The mean change from baseline in the MSQ role function [Time Frame: baseline to end of Week 12] • The mean change from baseline in the MSQ role function—restrictive domain score at Week 12 of the double-blind treatment phase. • 7. The mean change from baseline in the MIDAS total score. [Time Frame: baseline to end of Week 12] • The mean change from baseline in the MIDAS total score at Week 12 of the double-blind treatment phase.
This pivotal study enrolled patients with both episodic and chronic migraine. The study evaluated the efficacy and safety of rimegepant 75 mg (n=370) dosed every other day for the preventive treatment of migraine in patients versus placebo (n=371) who had migraine for at least one year and 4 to 18 moderate to severe migraine attacks per month over three months prior to enrollment. During the one-month observation period, patients experienced on average 10.7 migraine days per month, with 7.4 migraine days of moderate to severe migraine during the same period.

[4] = 370 patients who received rimegepant 75 mg every other day
[5] = Severity Mild, treated subjects N = 370
[6] = Severity Moderate or Severe, treated subjects N = 370
[7] = Severity Moderate, treated subjects N = 370
[8] = Severity Total, treated subjects N = 370

In the case of `N[C@@H]1c2cccnc2[C@H](OC(=O)N2CCC(n3c(=O)[nH]c4ncccc43)CC2)CC[C@H]1c1cccc(F)c1F` [Rimegepant, [(5S,6S,9R)-5-amino-6-(2,3-difluorophenyl)-6,7,8,9-tetrahydro-5H-cyclohepta[b]pyridin-9-yl] 4-(2-oxo-3H-imidazo[4,5-b]pyridin-1-yl)piperidine-1-carboxylate], the Pertussis [1] is reported as 0 n, the “ALT/AST elevations: relatedness to study drug as judged by independent liver monitoring panel” value [2, 4] is reported as “did not determine any ALT/AST elevations to be in the categories of probably or definitely related to study drug” and the “cases of ALT or AST>3×ULN and bilirubin>2×ULN” value [2, 4] is reported as “no cases”. The Enterobiasis [2, 5] was 0 n, the Folliculitis [2, 5] was 0 n and the Oral candidiasis [2, 5] was 0 n. For the same compound, the Orchitis [2, 5] was 0 n, the Otitis media [2, 5] was 0 n and the Acute sinusitis [2, 6] was 0 n. It also gave an Appendicitis [2, 6] of 0 n, a Bacterial vaginosis [2, 6] of 0 n and a Herpes zoster [2, 6] of 0 n. The Pharyngitis streptococcal [2, 6] was 0 n, the Pneumonia [2, 6] was 0 n and the Pyelonephritis [2, 6] was 0 n. It also gave a Sepsis [2, 6] of 0 n, an Acute sinusitis [2, 7] of 0 n and an Appendicitis [2, 7] of 0 n. The Bacterial vaginosis [2, 7] was 0 n, the Herpes zoster [2, 7] was 0 n and the Pharyngitis streptococcal [2, 7] was 0 n. The Sepsis [2, 7] was 0 n, the Acute sinusitis [2, 8] was 0 n and the Appendicitis [2, 8] was 0 n. It also gave an Enterobiasis [2, 8] of 0 n, a Folliculitis [2, 8] of 0 n and an Oral candidiasis [2, 8] of 0 n. It also gave an Orchitis [2, 8] of 0 n, an Otitis media [2, 8] of 0 n and a Pelvic inflammatory disease [2, 8] of 0 n. It also gave a Pharyngitis streptococcal [2, 8] of 0 n, a Pneumonia [2, 8] of 0 n and a Pyelonephritis [2, 8] of 0 n. The Sepsis [2, 8] was 0 n, the Tooth infection [2, 8] was 0 n and the “reduction in mean number of migraine days as compared to placebo” value ([3]; (4.9−3.7)/3.7*100, participants not taking concomitant preventive treatment) was 32%. For the same compound, the “Change From OP in Mean Number of Total Migraine Days per Month in First Month, Least-squares mean, Difference (Rimegepant − Placebo)” value ([3]; Evaluable mITT subjects, P-value 0.0013) was −0.9, the “Change From OP in Mean Number of Total Migraine Days per Month Overall, Least-squares mean, Difference (Rimegepant − Placebo)” value ([3]; Evaluable mITT subjects, P-value 0.0094) was −0.7 and the “Primary Endpoint: Change From OP in Mean Number of Total Migraine Days per Month in Last Month, Least-squares mean, Difference (Rimegepant − Placebo)” value ([3]; Evaluable mITT subjects, P-value 0.0176, significant in hierarchical testing) was −0.8. For the same compound, the “MSQoL Restrictive Role Function Domain Score Change From Baseline at Week 12, Least-squares mean, Difference (Rimegepant − Placebo)” value ([3]; Evaluable mITT subjects, P-value 0.0358) was 3.5, the “>=50% Reduction From OP in Mean Number of Moderate or Severe Migraine Days per Month in Last Month, Stratified Risk, Difference (Rimegepant − Placebo)” value ([3]; Evaluable mITT subjects, P-value 0.0734) was 5.7 and the “Rescue Medication Days per Month In Last Month, Least-squares mean, Difference (Rimegepant − Placebo)” value ([3]; Evaluable mITT subjects, P-value 0.3868) was −0.2. The “MIDAS Total Score Change From Baseline at Week 12, Least-squares mean, Difference (Rimegepant − Placebo)” value ([3]; Evaluable mITT subjects, P-value 0.9616) was −0.1.
